Reference: patent US8273775B2, “Non-steroidal brassinosteroid mimetic” (priority 2006, dated 2012)

Tests used:
bri1-116 and cpd mutants = assay: Flowcytometric analysis of DNA content of cotyledons and leaves; type: in vivo, Arabidopsis; details: 6 days of treatments
Protocol: FIG. 16: Rescue of bri1-116 and cpd mutants grown on different concentrations of ABRASIN and BL. The plants were germinated on MS+DMSO medium till day 5 and afterwards transferred on MS supplemented with the respective concentration of ABRASIN and BL for 6 more days. Flowcytometric analysis of cotyledons and leaves was performed at the last day of treatments. (A.) Rescue of bri1-116 mutants by ABRASIN. Increasing the ABRASIN concentration promotes cell division activation. (B.) Rescue of cpd mutants by ABRASIN. Increasing the ABRASIN concentration promotes cell division activation. (C.) Rescue of cpd mutants by BL. Both cell division and endoreduplication take place in the BL rescue strategy. BL: brassinolide; BIK: abrasin.
(§1) Col-0, the null BR signaling bri1-116 (Friedrichsen et al., 2000) and BR biosynthetic cpd (Szekeres et al., 1996) mutants were subjected to phenotype rescue analysis by treatments with BL and ABRASIN. As a negative control, dimethylsulfoxide (DMSO) was used. Plants were germinated in vitro for 5 days on ½ MS containing DMSO medium and from day 6th to day 11th they were transferred on medium supplemented with BL (10 nM, 100 nM, 1000 nM), ABRASIN (5 μM, 10 μM, 30 μM) or DMSO. Cotyledons and leaves were collected for flowcytometric analysis at the 11th day (i.e. 6 days of treatments). Samples for β-glucuronidase (GUS) assay were taken on day 6th (i.e. 1 day treatments), 8th (i.e. 3 days treatments), 10th (i.e. 5 days treatments). Rescue of soil-grown mutants at different growth stages was checked by watering bri1-116 and cpd mutants with either BL or 2 ml 300 μM ABRASIN per day.
Samples for flow cytometric analysis were collected and analyzed as described earlier (De Veylder et al., 2001)

cpd, det2-1 mutants = assay: Phenotype rescue of BR-biosynthesis mutants; type: in vivo, Arabidopsis thaliana; details: for phenotype rescue of cpd mutant: day 5 to day 11 on 1 μM BL or 30 μM ABRASIN; for rescue of dwarfed phenotype: light-grown, abrasin 50 μM or BL 1 μM
Protocol: (§2) FIG. 5: Effect of brassinolide (BL) and abrasin (I5) treatment on mutants. WT or mutant plants were grown under standard conditions on agar plates. After 3 days of germination, plants were transferred to agar plates containing abrasin at a concentration of 50 μM or BL at a concentration of 1 μM.
(§3) For further phenotypical analysis, all plants were grown on vertically oriented square plates (Greiner Labortechnik, Austria) with solid medium derived from standard Murashige and Skoog medium under the same conditions. For the hypocotyl-elongation assay, plants were grown in the dark at 22° C. under the same conditions.
as §1

[1] = system: DR5, CYCB1;1 and CDKB1;1 promoters fused to GUS; assay: GUS assay of promoter-reporter markers in first leaf; type: in vivo, Arabidopsis; details: for CDKB1;1-GUS expression: 30 μM ABRASIN or 1 μM BL, days 8 and 10
Protocol: FIG. 17: Investigation of differences in the rescue strategy of bri1-116 and cpd mutants treated with ABRASIN (30 μM) or BL (1 μM). The activation of markers for auxin response (DR5) and cell division (CYCB1; 1 and CDKB1; 1) was followed by localization of their promoters fused to β-glucuronidase (GUS) reporter gene. […] Samples for GUS assay were taken on day 6th (i.e. 1 day treatment), 8th (i.e. 3 days treatment), 10th (i.e. 5 days treatment). (A.) The effect of ABRASIN on the first leaf of bri1-116 and Col-0 plants—activity localization of DR5, CYCB1; 1 and CDKB1; 1 promoters fused to GUS reporter gene (B.) The effect of ABRASIN on the first leaf of cpd and Col-0 plants—activity localization of CYCB1; 1 and CDKB1; 1 promoters fused to GUS reporter gene. BL: brassinolide; BIK: abrasin.
as §1
GUS staining was carried out by the method described by Jefferson et al. (1987). Images of GUS stained plants were taken with binocular microscope (MZ16, Leica) and Nikon camera.

[2] = system: BES1 protein in 35S:BES1:GFP plants; assay: Western blot analysis of BES1 phosphorylation state; type: in vivo, Arabidopsis thaliana
Protocol: FIG. 8: A: Western Blot analysis of the BES1 protein in 35S:BES1:GFP plants treated with BL and abrasin (indicated as I5 throughout the figure) (A); MG132 with BL or abrasin (B); a time course with abrasin (C) and a concentration gradient with abrasin (D). B: Abrasin and BL induce similar transcriptional regulation of the BR pathway.
For protein extraction, six-day-old seedlings were grown under standard conditions as described earlier on solid medium. Plants were next soaked in liquid MS-medium supplemented with the indicated compounds (concentrations and time periods as indicated in figures). Subsequently, plants were frozen in liquid nitrogen, ground and homogenized in ice-cold homogenization buffer (25 mM Tris-HCl (pH 8), 5 mM EDTA, 1 mM β-Mercapto-ethanol, 15 mM MgCl—2, 85 mM NaCl, 0.1% Tween 20, 1 protease inhibitor tablet/50 ml, Complete (Roche diagnostics, Belgium)). The homogenate was centrifuged twice (5 min, 14.000 rpm, 4° C.) in an Eppendorf Centrifuge 5417. Loading buffer was added, the samples were heated for 10 min at 95° C. and centrifuged. The samples were separated on a 12% acrylamide gel or a 4-20% gradient pre-cast gel (Bio-Rad) and blotted on nitrocellulose membranes (Hybond-C super, GE-Biosciences, UK) in 190 mM glycine and 25 mM Tris-Hcl using a mini-blotting system (Bio-Rad, USA) for 1 h. Membranes were blocked overnight at 4° C. in phosphate buffer with 0.1% Tween 20 and 5% skim milk (BD Difco, USA). For immunodetection, anti-BES1 antibodies at 1:2000 dilution and anti-GFP antibodies at 1:1000 dilution were used as primary antibody. As secondary antibody, anti-rat and anti-rabbit were used at 1:10.000 dilution. The proteins were detected by chemiluminescence (Perkin-Elmer, USA).

[3] = system: bri1-116, bri1-301 mutants; assay: Phenotype rescue of BR perception (receptor) mutants; type: in vivo, Arabidopsis thaliana; details: for phenotype rescue of bri1-116 mutant: day 5 to day 11 on 1 μM BL or 30 μM ABRASIN; for rescue of dwarfed phenotype: light-grown, abrasin 50 μM or BL 1 μM
Protocol: as §2, §3, §1

| Compound | DNA content distribution of leaves (bri1-116 and cpd mutants) | concentration sufficient to rescue the mutant phenotypes (cpd, det2-1 mutants; 6 days of treatments) [nM] | phenotype rescue of cpd mutant (cpd, det2-1 mutants) | rescue of dwarfed phenotype (cpd, det2-1 mutants) | CDKB1;1-GUS expression [1] | BES1 phosphorylation state ([2]; addition of BL or MG132) | phenotype rescue of bri1-116 mutant [3] | rescue of dwarfed phenotype [3] | DNA content of cotyledons (bri1-116 and cpd mutants) | CYCB1;1 expression (cell division marker) ([1]; 30 μM ABRASIN) | DR5 activity in the leaves ([1]; 1 day of treatment) | DR5 activity / auxin levels in the leaves ([1]; longer treatment) | total amount of BES1 protein ([2]; abrasin 50 μM) | BES1 phosphorylation state ([2]; abrasin 5 to 10 μM) | time to shift towards the non-phosphorylated BES1 protein ([2]; after addition to the medium) [min] | time after treatment at which phenotypic changes were observed ([3]; bri1-116 and cpd mutants, 30 μM ABRASIN) [days] | concentration sufficient to rescue the mutant phenotypes ([3]; bri1-116 and cpd mutants, 6 days of treatments) [µM] |
| --- | --- | --- | --- | --- | --- | --- | --- | --- | --- | --- | --- | --- | --- | --- | --- | --- | --- |
| CC(C)[C@H](C)[C@@H](O)[C@H](O)[C@@H](C)[C@H]1CC[C@H]2[C@@H]3COC(=O)[C@H]4C[C@H](O)[C@H](O)C[C@]4(C)[C@H]3CC[C@]12C [BL, brassinolide, reference compound] | did not significantly changes the DNA content distribution | 10 | rescued the dwarf statute of the cpd to a wild-type | rescues the cpd and det2-1 mutants | induced only stomata specific expression | induces more non-phosphorylated protein | bri1-116 was insensitive and therefore unaffected by BL | but not the bri1 receptor mutants | – | – | – | – | – | – | – | – | – |
| O=C(O)CCC(=O)Nc1ccc(Br)cn1 [abrasin, 4-[(5-bromo-2-pyridinyl)amino]-4-oxobutanoic acid] | significantly increased the 2C and 4C content and completely suppressed the 16C content | – | rescued the phenotypes of both bri1-116 and cpd mutants to the wild-type | all mutant lines, including the bri1 receptor mutants, showed an elongated phenotype | activated CDKB1; 1-GUS predominately in the leaf vasculature | – | rescued the phenotypes of both bri1-116 and cpd mutants to the wild-type | all mutant lines, including the bri1 receptor mutants, showed an elongated phenotype | the values for cotyledons did not differ form the untreated controls | increased the CYCB1; 1 expression | did not significantly increases the DR5 activity in the leaves | the auxin levels in both bri1-116 and wild type leaves were increased after longer treatment | the total amount of BES1 protein is also reduced | a shift towards non-phosphorylated BES1 is observed | ≤ 30 | 1 | 10 |
